Experimental data reported in patent publication US8106055B2, “Substituted amide compounds” (Gruenenthal GmbH, priority 2007, dated 2012).

Key:
[1] = target: T1, human bradykinin 1 receptor (B1R) (Homo sapiens, UniProt P46663); assay: Functional investigation on the human bradykinin 1 receptor (B1R), Ca2+ FLIPR assay in CHO K1 hB1R cells; format: cell-based; conditions: CHO-K1, B1R antagonism human; test substance 10 μM; Ca2+ FLIPR, CHO K1 hB1R cells; read-out: B1R Ant. h [10 μM] % Inhibition
T1 construct: expressed in transfected cells; host or cells: CHO K1 cells
T1 sequence (P46663 1-353): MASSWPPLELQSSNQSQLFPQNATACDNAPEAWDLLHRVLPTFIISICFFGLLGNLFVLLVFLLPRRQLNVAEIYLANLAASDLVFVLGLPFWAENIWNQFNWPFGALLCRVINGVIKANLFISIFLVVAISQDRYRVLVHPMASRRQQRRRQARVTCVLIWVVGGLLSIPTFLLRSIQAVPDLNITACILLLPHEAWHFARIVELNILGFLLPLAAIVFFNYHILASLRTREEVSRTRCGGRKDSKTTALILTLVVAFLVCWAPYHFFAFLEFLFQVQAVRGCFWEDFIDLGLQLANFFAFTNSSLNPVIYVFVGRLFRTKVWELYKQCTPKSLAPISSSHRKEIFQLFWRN
Source text: (§1) Functional Investigation on the Human Bradykinin 1 Receptor (B1R)
(§2) The agonistic or antagonistic action of substances can be determined on the bradykinin 1 receptor (B1R) of the human species and rats with the following assay. In accordance with this assay, the Ca^2+ inflow through the channel is quantified with the aid of a Ca^2=-sensitive dyestuff (type Fluo-4, Molecular Probes Europe BV, Leiden, Holland) in a fluorescent imaging plate reader (FLIPR, Molecular Devices, Sunnyvale, USA).
(§3) Chinese hamster ovary cells (CHO K1 cells) transfected stably with the human B1R gene (hB1R cells) or the B1R gene of the rat (rB1R cells) are used. For functional studies, these cells are plated out on black 96-well plates with a clear base (BD Biosciences, Heidelberg, Germany or Greiner, Frickenhausen, Germany) in a density of 20,000-35,000 cells/well. The cells are left overnight at 37° C. and 5% CO2 in culture medium (hB1R cells: Nutrient Mixture Ham's F12, Gibco Invitrogen GmbH, Karlsruhe, Germany or DMEM, Sigma-Aldrich, Taufkirchen, Germany; rB1R cells: D-MEM/F12, Gibco Invitrogen GmbH, Karlsruhe, Germany) with 10 vol. % of FBS (foetal bovine serum, Gibco Invitrogen GmbH, Karlsruhe, Germany or PAN Biotech GmbH, Aidenbach, Germany).
(§4) On the following day, the cells are loaded for 60 min at 37° C. with 2.13 μM Fluo-4 (Molecular Probes Europe BV, Leiden, The Netherlands) in HBSS buffer (Hank's buffered saline solution, Gibco Invitrogen GmbH, Karlsruhe, Germany) with 2.5 mM probenecid (Sigma-Aldrich, Taufkirchen, Germany) and 10 mM HEPES (Sigma-Aldrich, Taufkirchen, Germany). The plates are then washed 2× with HBSS buffer, and HBSS buffer which additionally contains 0.1% of BSA (bovine serum albumin; Sigma-Aldrich, Taufkirchen, Germany), 5.6 mM glucose and 0.05% of gelatine (Merck KGaA, Darmstadt, Germany) is added. After a further incubation of 20 minutes at room temperature, the plates are inserted into the FLIPR for the Ca^2+ measurement.
(§5) Alternatively, the plates are washed with buffer A (15 mM HEPES, 80 mM NaCl, 5 mM KCl, 1.2 mM CaCl2, 0.7 mM MgSO4, 2 g/l glucose, 2.5 mM probenecid), buffer A is added and the plates are loaded with 2.5 μM Fluo-4 and 0.025% of Pluronic F127 (Sigma-Aldrich, Taufkirchen, Germany). Thereafter, the cells are washed 2× with buffer A and incubated for 30 minutes with buffer A, which additionally contains 0.05% of BSA and 0.05% of gelatine, at room temperature and thereafter inserted into the FLIPR for the Ca^2+ measurement.
(§6) The Ca^2+-dependent fluorescence is measured before and after addition of substances (λex=488 nm, λem=540 nm). Quantification is by measurement of the highest fluorescence intensity (FC, fluorescence counts) over time.
(§7) The FLIPR protocol consists of 2 additions of substance. Test substances (10 μM) are first pipetted on to the cells and the Ca^2+ inflow is compared with the control (hB1R: Lys-Des-Arg^9-bradykinin >=50 nM; rB1R: Des-Arg^9-bradykinin 10 μM). This gives the information in % activation based on the Ca^2+ signal after addition of Lys-Des-Arg^9-bradykinin (>=50 nM) or Des-Arg^9-bradykinin (10 μM).
(§8) After incubation for 10-20 minutes, Lys-Des-Arg^9-bradykinin (hB1R) or Des-Arg^9-bradykinin (rB1R) is applied in the concentration of the EC80 and the inflow of Ca^2+ is likewise determined.
(§9) Antagonists lead to a suppression of the Ca^2+ inflow. % inhibition compared with the maximum achievable inhibition is calculated.
(§10) To determine the IC50 value, the substances are added in various concentrations. Duplicate or triplicate determinations (n=2 or n=3) are carried out, and these are repeated in at least one further independent experiment (N>=2).
(§11) Preferably, the compounds have a B1R antagonistic action on the human receptor and/or on the rat receptor. The following data are given by way of example in the following table: (In this, “B1R Ant. h” represents “B1R antagonism human” and “B1R Ant. r” represents “B1R antagonism rat”)

[2] = target: T2, bradykinin 1 receptor (B1R) of the rat (Rattus norvegicus, UniProt P97583); assay: Functional investigation on the rat bradykinin 1 receptor (B1R), Ca2+ FLIPR assay in CHO K1 rB1R cells; format: cell-based; conditions: CHO-K1, B1R antagonism rat; test substance 10 μM; Ca2+ FLIPR, CHO K1 rB1R cells; read-out: B1R Ant. r [10 μM] % Inhibition
T2 construct: expressed in transfected cells; host or cells: CHO K1 cells
T2 sequence (P97583 1-337): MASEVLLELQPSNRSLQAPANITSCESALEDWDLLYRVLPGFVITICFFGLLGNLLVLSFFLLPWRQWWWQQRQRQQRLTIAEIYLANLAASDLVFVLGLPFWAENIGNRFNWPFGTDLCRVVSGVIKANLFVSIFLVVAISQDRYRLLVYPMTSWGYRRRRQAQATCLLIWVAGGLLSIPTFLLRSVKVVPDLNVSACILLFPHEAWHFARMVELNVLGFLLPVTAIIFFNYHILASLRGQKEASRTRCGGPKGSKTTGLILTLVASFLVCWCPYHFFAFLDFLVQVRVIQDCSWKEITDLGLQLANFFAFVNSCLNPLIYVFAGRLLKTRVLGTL
Source text: as §1, §2, §3, §4, §5, §6, §7, §8, §9, §10, §11

| SMILES | inhibition at 10 µM [1] [%] | inhibition at 10 µM [2] [%] |
| --- | --- | --- |
| Cc1cc(C)c(-c2noc(C(=O)NCC(=O)NC3CCC(C(c4ccccc4)N(C)C)CC3)n2)c(C)c1 (stereo not drawn) [Example 772, 3-(2,4,6-trimethyl-phenyl)-[1,2,4]oxadiazole-5-carboxylic acid {[4-(dimethylamino-phenyl-methyl)-cyclohexylcarbamoyl]-methyl}-amide] | 11 | 41 |
| CN(C)C(c1ccccc1)C1CCC(NC(=O)CCNC(=O)c2nc(-c3ccc(Cl)cc3Cl)no2)CC1 (stereo not drawn) [Example 773, 3-(2,4-dichloro-phenyl)-[1,2,4]oxadiazole-5-carboxylic acid {2-[4-(dimethylamino-phenyl-methyl)-cyclohexylcarbamoyl]-ethyl}-amide] | 20 | 17 |
| COc1ccc(-c2noc(C(=O)NCCC(=O)NC3CCC(C(c4ccccc4)N(C)C)CC3)n2)cc1OC (stereo not drawn) [Example 774, 3-(3,4-dimethoxy-phenyl)-[1,2,4]oxadiazole-5-carboxylic acid {2-[4-(dimethylamino-phenyl-methyl)-cyclohexylcarbamoyl]-ethyl}-amide] | -8 | 2 |
| COc1ccc(-c2noc(C(=O)NCC(=O)NC3CCC(C(c4ccccc4)N(C)C)CC3)n2)cc1OC (stereo not drawn) [Example 775, 3-(3,4-dimethoxy-phenyl)-[1,2,4]oxadiazole-5-carboxylic acid {[4-(dimethylamino-phenyl-methyl)-cyclohexylcarbamoyl]-methyl}-amide] | -7 | 20 |
| CN(C)C(c1ccccc1)C1CCC(NC(=O)CCNC(=O)c2nc(-c3cccs3)no2)CC1 (stereo not drawn) [Example 776, 3-thiophen-2-yl-[1,2,4]oxadiazole-5-carboxylic acid {2-[4-(dimethylamino-phenyl-methyl)-cyclohexylcarbamoyl]-ethyl}-amide] | -22 | 30 |
| CN(C)C(c1cccs1)C1CCC(NC(=O)CNC(=O)c2nc(-c3ccc(C(F)(F)F)cc3)no2)CC1 (stereo not drawn) [Example 777, 3-(4-trifluoromethyl-phenyl)-[1,2,4]oxadiazole-5-carboxylic acid {[4-(dimethylamino-thiophen-2-yl-methyl)-cyclohexylcarbamoyl]-methyl}-amide] | -1 | 27 |
| CN(C)C(c1cccc(F)c1)C1CCC(CNC(=O)CNC(=O)c2nc(-c3ccc(C(F)(F)F)cc3)no2)CC1 (stereo not drawn) [Example 778, 3-(4-trifluoromethyl-phenyl)-[1,2,4]oxadiazole-5-carboxylic acid [({4-[dimethylamino-(3-fluoro-phenyl)-methyl]-cyclohexylmethyl}-carbamoyl)-methyl]-amide] | -1 | 12 |
| CN(C)C(c1cccs1)C1CCC(NC(=O)CNC(=O)c2nc(-c3ccc(C(C)(C)C)cc3)no2)CC1 (stereo not drawn) [Example 779, 3-(4-tert-butyl-phenyl)-[1,2,4]oxadiazole-5-carboxylic acid {[4-(dimethylamino-thiophen-2-yl-methyl)-cyclohexylcarbamoyl]-methyl}-amide] | -10 | -13 |
| CN(C)C(c1cccc(F)c1)C1CCC(CNC(=O)CCNC(=O)c2nc(-c3cccs3)no2)CC1 (stereo not drawn) [Example 780, 3-thiophen-2-yl-[1,2,4]oxadiazole-5-carboxylic acid [2-({4-[dimethylamino-(3-fluoro-phenyl)-methyl]-cyclohexylmethyl}-carbamoyl)-ethyl]-amide] | -12 | -2 |
| CN(C)C(c1cccc(F)c1)C1CCC(CNC(=O)CNC(=O)c2nc(CS(=O)(=O)c3ccccc3)no2)CC1 (stereo not drawn) [Example 781, 3-benzenesulfonylmethyl-[1,2,4]oxadiazole-5-carboxylic acid [({4-[dimethylamino-(3-fluoro-phenyl)-methyl]-cyclohexylmethyl}-carbamoyl)-methyl]-amide] | -4 | -35 |
| COc1ccccc1-c1noc(C(=O)NCC(=O)NC2CCC(C(CCc3ccccc3)N(C)C)CC2)n1 (stereo not drawn) [Example 782, 3-(2-methoxy-phenyl)-[1,2,4]oxadiazole-5-carboxylic acid {[4-(1-dimethylamino-3-phenyl-propyl)-cyclohexylcarbamoyl]-methyl}-amide] | -6 | -11 |
| CN(C)C(CCc1ccccc1)C1CCC(NC(=O)CNC(=O)c2nc(-c3ccc4c(c3)OCO4)no2)CC1 (stereo not drawn) [Example 783, 3-benzo[1,3]dioxol-5-yl-[1,2,4]oxadiazole-5-carboxylic acid {[4-(1-dimethylamino-3-phenyl-propyl)-cyclohexylcarbamoyl]-methyl}-amide] | 45 | -28 |
| CN(C)C(CCc1ccccc1)C1CCC(NC(=O)CNC(=O)c2nc(-c3cccs3)no2)CC1 (stereo not drawn) [Example 784, 3-thiophen-2-yl-[1,2,4]oxadiazole-5-carboxylic acid {[4-(1-dimethylamino-3-phenyl-propyl)-cyclohexylcarbamoyl]-methyl}-amide] | 76 | -1 |
| CN(C)C(CCc1ccccc1)C1CCC(NC(=O)CNC(=O)c2nc(-c3ccc(C(F)(F)F)cc3)no2)CC1 (stereo not drawn) [Example 785, 3-(4-trifluoromethyl-phenyl)-[1,2,4]oxadiazole-5-carboxylic acid {[4-(1-dimethylamino-3-phenyl-propyl)-cyclohexylcarbamoyl]-methyl}-amide] | 76 | 32 |
| CN(C)C(CCc1ccccc1)C1CCC(NC(=O)CNC(=O)c2nc(-c3ccc(C(C)(C)C)cc3)no2)CC1 (stereo not drawn) [Example 786, 3-(4-tert-butyl-phenyl)-[1,2,4]oxadiazole-5-carboxylic acid {[4-(1-dimethylamino-3-phenyl-propyl)-cyclohexylcarbamoyl]-methyl}-amide] | 35 | -4 |
